In ChEMBL document CHEMBL1154068, “Synthesis and evaluation of A-seco type triterpenoids for anti-HIV-1protease activity” (Eur J Med Chem, 2009):

Tests used:
Protease = Protease (Human immunodeficiency virus 1, UniProt Q9YQ12); assay: Inhibition of HIV1 protease
Renin = molecular target: T1, Renin (Homo sapiens, UniProt P00797); assay: Inhibition of renin by fluorimetric assay
T1 sequence (P00797 whole entry): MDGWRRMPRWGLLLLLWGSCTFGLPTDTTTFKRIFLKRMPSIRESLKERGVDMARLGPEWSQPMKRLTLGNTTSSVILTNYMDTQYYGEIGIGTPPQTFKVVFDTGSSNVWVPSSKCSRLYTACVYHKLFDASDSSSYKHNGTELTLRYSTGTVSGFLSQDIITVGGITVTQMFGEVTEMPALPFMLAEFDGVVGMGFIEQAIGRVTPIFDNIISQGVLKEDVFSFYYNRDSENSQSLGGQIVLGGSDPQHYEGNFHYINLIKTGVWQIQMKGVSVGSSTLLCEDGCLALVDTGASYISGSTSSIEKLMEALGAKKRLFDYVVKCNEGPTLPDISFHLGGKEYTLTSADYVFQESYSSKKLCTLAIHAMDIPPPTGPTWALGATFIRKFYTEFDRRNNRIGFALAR

[1] = Inhibition of HCV NS3/4A protease by fluorimetric assay; design: species or system Hepacivirus hominis
[2] = Inhibition of trypsin by fluorimetric assay

Protease, sequence (Q9YQ12 whole entry): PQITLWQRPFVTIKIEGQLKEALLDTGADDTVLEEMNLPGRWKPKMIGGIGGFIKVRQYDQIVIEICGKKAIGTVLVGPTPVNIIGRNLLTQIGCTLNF

Compound	IC50 (Protease) [µM]	IC50 (Renin) [µM]	IC50 [1] [µM]	IC50 [2] [µM]
C=C(C)[C@@H]1CC[C@]2(C)CC[C@]3(C)[C@@H](CC[C@@H]4[C@@]5(C)C=C(O)C(=O)C(C)(C)[C@@H]5CC[C@]43C)[C@H]12	24.6	–	–	–
C=C(C)[C@@H]1CC[C@]2(C(=O)O)CC[C@]3(C)[C@@H](CC[C@@H]4[C@@](C)(CC(=O)O)[C@H](C(C)(C)C(=O)O)CC[C@]43C)[C@H]12	15.7	> 1990	> 199	856
CC(C)[C@@H](NC(=O)[C@]12CCC(C)(C)C[C@@H]1[C@H]1CC[C@@H]3[C@@]4(C)C=C(O)C(=O)C(C)(C)[C@@H]4CC[C@@]3(C)[C@]1(C)CC2)C(=O)O	49.7	–	–	–
CC(C)[C@H](NC(=O)[C@]12CCC(C)(C)C[C@@H]1C1=CC[C@@H]3[C@@]4(C)CCC(=O)C(C)(C)[C@@H]4CC[C@@]3(C)[C@]1(C)CC2)C(=O)O	14.6	–	–	–
C[C@H]1[C@H](C)CC[C@]2(C(=O)O)CC[C@]3(C)C(=CC[C@@H]4[C@@](C)(CC(=O)O)[C@H](C(C)(C)C(=O)O)CC[C@]43C)[C@H]12	17.6	> 1990	> 199	> 1990
CC1(C)C(=O)C(O)=C[C@]2(C)[C@H]3C(=O)C[C@@H]4[C@H]5C[C@@](C)(C(=O)O)CC[C@]5(C)CC[C@@]4(C)[C@]3(C)CC[C@@H]12	15.8	–	–	–
C=C(C)[C@@H]1CC[C@@]2(C)[C@@H]1[C@@H]1CC[C@@H]3[C@@](C)(CC(=O)O)[C@H](C(C)(C)C(=O)O)CC[C@@]3(C)[C@]1(C)C[C@@H]2O	10.9	> 2050	> 205	> 2050
CC(=O)O[C@H]1CC[C@]2(C)[C@H]3CC=C4[C@@H]5CC(C)(C)CC[C@]5(C(=O)O)CC[C@@]4(C)[C@]3(C)CC[C@H]2C1(C)C [ACETYL OLEANOLIC ACID]	> 201	–	–	–
COC(=O)[C@@H](NC(=O)[C@]12CCC(C)(C)C[C@@H]1C1=CC[C@@H]3[C@@]4(C)CC[C@H](OC(C)=O)C(C)(C)[C@@H]4CC[C@@]3(C)[C@]1(C)CC2)C(C)C	21.3	–	–	–
CC(C)[C@H](NC(=O)[C@]12CCC(C)(C)C[C@@H]1[C@H]1CC[C@@H]3[C@@]4(C)C=C(O)C(=O)C(C)(C)[C@@H]4CC[C@@]3(C)[C@]1(C)CC2)C(=O)O	40.5	–	–	–
C[C@H]1[C@H](C)CC[C@]2(C(=O)O)CC[C@]3(C)C(=CC[C@@H]4[C@@]5(C)CCC(=O)C(C)(C)[C@@H]5CC[C@]43C)[C@H]12 [URSONIC ACID]	37.5	–	–	–
C[C@@H]1[C@H]2[C@H]3CC[C@@H]4[C@@]5(C)C=C(O)C(=O)C(C)(C)[C@@H]5CC[C@@]4(C)[C@]3(C)CC[C@@]2(C(=O)O)CC[C@H]1C	25.4	–	–	–
C=C(C)[C@@H]1CC[C@]2(C=O)CC[C@]3(C)[C@@H](CC[C@@H]4[C@@]5(C)CCC(=O)C(C)(C)[C@@H]5CC[C@]43C)[C@H]12	31.9	–	–	–
CC(C)[C@@H](NC(=O)[C@]12CCC(C)(C)C[C@@H]1C1=CC[C@@H]3[C@@]4(C)CC[C@H](O)C(C)(C)[C@@H]4CC[C@@]3(C)[C@]1(C)CC2)C(=O)O	47.3	–	–	–
COC(=O)[C@@H](NC(=O)[C@]12CCC(C)(C)C[C@@H]1C1=CC[C@@H]3[C@@]4(C)CCC(=O)C(C)(C)[C@@H]4CC[C@@]3(C)[C@]1(C)CC2)C(C)C	37	–	–	–
C=C(C)[C@@H]1CC[C@]2(C)CC[C@]3(C)[C@@H](CC[C@@H]4[C@@]5(C)CCC(=O)C(C)(C)[C@@H]5CC[C@]43C)[C@H]12	> 236	–	–	–

Compound	IC50 (Protease) [µM]	IC50 (Renin) [µM]	IC50 [1] [µM]	IC50 [2] [µM]
CC1(C)CC[C@]2(CO)CC[C@]3(C)C(=CC[C@@H]4[C@@](C)(CC(=O)O)[C@H](C(C)(C)C(=O)O)CC[C@]43C)[C@H]2C1	30.4	–	–	–
C=C(C)[C@@H]1CC[C@]2(C)CC[C@]3(C)[C@@H](CC[C@@H]4[C@@](C)(CC(=O)O)[C@H](C(C)(C)C(=O)O)CC[C@]43C)[C@H]12	25.4	> 2120	80.3	> 2120
CC(C)[C@@H](NC(=O)[C@]12CCC(C)(C)C[C@@H]1C1=CC[C@@H]3[C@@]4(C)CCC(=O)C(C)(C)[C@@H]4CC[C@@]3(C)[C@]1(C)CC2)C(=O)O	45.2	–	–	–
CC(C)(C(=O)O)[C@@H]1CC[C@]2(C)[C@H](C(=O)C=C3[C@H]4C[C@@](C)(C(=O)O)CC[C@]4(C)CC[C@]32C)[C@@]1(C)CC(=O)O	5.7	> 1930	> 194	> 1940
COC(=O)[C@H](NC(=O)[C@]12CCC(C)(C)C[C@@H]1C1=CC[C@@H]3[C@@]4(C)CC[C@H](O)C(C)(C)[C@@H]4CC[C@@]3(C)[C@]1(C)CC2)C(C)C	32.3	–	–	–
CC(C)[C@H](NC(=O)[C@]12CCC(C)(C)C[C@@H]1C1=CC[C@@H]3[C@@]4(C)CC[C@H](O)C(C)(C)[C@@H]4CC[C@@]3(C)[C@]1(C)CC2)C(=O)O	10.6	–	–	–
CC1(C)C(=O)CC[C@]2(C)[C@H]3C(=O)C=C4[C@H]5C[C@@](C)(C(=O)O)CC[C@]5(C)CC[C@@]4(C)[C@]3(C)CC[C@@H]12	23.6	–	–	–
CC(C)[C@@H](NC(=O)[C@]12CCC(C)(C)C[C@@H]1C1=CC[C@@H]3[C@@](C)(CC(=O)O)[C@H](C(C)(C)C(=O)O)CC[C@@]3(C)[C@]1(C)CC2)C(=O)O	88.1	> 1660	> 166	> 1660
CC1(C)CC[C@]2(C(=O)O)CC[C@]3(C)[C@H](CC[C@@H]4[C@@]5(C)C=C(O)C(=O)C(C)(C)[C@@H]5CC[C@]43C)[C@H]2C1	19.2	–	–	–
C=C(C)[C@@H]1CC[C@]2(C(=O)O)CC[C@]3(C)[C@@H](CC[C@@H]4[C@@]5(C)C=C(O)C(=O)C(C)(C)[C@@H]5CC[C@]43C)[C@H]12	18.8	–	–	–
COC(=O)[C@H](NC(=O)[C@]12CCC(C)(C)C[C@@H]1C1=CC[C@@H]3[C@@]4(C)CCC(=O)C(C)(C)[C@@H]4CC[C@@]3(C)[C@]1(C)CC2)C(C)C	41.4	–	–	–
CC1(C)CC[C@]2(C(=O)O)CC[C@]3(C)C(=CC[C@@H]4[C@@](C)(CC(=O)O)[C@H](C(C)(C)C(=O)O)CC[C@]43C)[C@H]2C1	3.9	> 1990	> 199	> 1990
CC1(C)CC[C@]2(C(=O)O)CC[C@]3(C)C(=CC[C@@H]4[C@@]5(C)CCC(=O)C(C)(C)[C@@H]5CC[C@]43C)[C@H]2C1	27.4	–	–	–
CC1(C)CC[C@]2(C(=O)O)CC[C@]3(C)C(=CC[C@@H]4[C@@]5(C)CC(=O)C(C)(C)[C@@H]5CC[C@]43C)[C@H]2C1	28.6	–	–	–
COC(=O)[C@@H](NC(=O)[C@]12CCC(C)(C)C[C@@H]1C1=CC[C@@H]3[C@@]4(C)CC[C@H](O)C(C)(C)[C@@H]4CC[C@@]3(C)[C@]1(C)CC2)C(C)C	24.6	–	–	–
